Reference: ChEMBL document CHEMBL1201862, “PubChem BioAssay data set” (2004)
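Five compound concentrations were applied to cells in 96-well plates for 48 hours; endpoints were derived by simple linear interpolation of the resulting dose-response curve. GI50 is the concentration that inhibits growth by half.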 Calls of active or inactive are those of the source. Rule as the data show it: active = GI50 up to about 1.1 µM and inactive = higher.

Assays:
Assay in all cases: NCI-60 cell line screen, 48 h
A498 = tested on: A498
HCT-15 = tested on: HCT-15
HL-60 = tested on: HL-60
HT-29 = tested on: HT-29
Hs-578T = tested on: Hs-578T
K562 = tested on: K562
MDA-MB-435 = tested on: MDA-MB-435
MOLT-4 = tested on: MOLT-4
Malme-3M = tested on: Malme-3M
PC-3 = tested on: PC-3
RPMI-8226 = tested on: RPMI-8226
RXF 393 = tested on: RXF 393
SF-268 = tested on: SF-268
SF-295 = tested on: SF-295
SF-539 = tested on: SF-539
SW-620 = tested on: SW-620
T47D = tested on: T47D
UACC-62 = tested on: UACC-62

| SMILES | GI50 (A498) | GI50 (HCT-15) [µM] | GI50 (HL-60) | GI50 (HT-29) | GI50 (Hs-578T) | GI50 (K562) | GI50 (MDA-MB-435) | GI50 (MOLT-4) | GI50 (Malme-3M) | GI50 (PC-3) | GI50 (RPMI-8226) | GI50 (RXF 393) | GI50 (SF-268) | GI50 (SF-295) | GI50 (SF-539) | GI50 (SW-620) | GI50 (T47D) | GI50 (UACC-62) |
| --- | --- | --- | --- | --- | --- | --- | --- | --- | --- | --- | --- | --- | --- | --- | --- | --- | --- | --- |
| O=S1(=O)OCc2ccccc21 | 37.5 µM (inactive) | 59.3 | 59.3 µM (inactive) | > 100 µM (inactive) | > 100 µM (inactive) | > 100 µM (inactive) | 58.1 µM (inactive) | 15.7 µM (inactive) | > 100 µM (inactive) | > 100 µM (inactive) | 61.1 µM (inactive) | > 100 µM (inactive) | > 100 µM (inactive) | > 100 µM (inactive) | 25.2 µM (inactive) | 85.7 µM (inactive) | > 100 µM (inactive) | 80.2 µM (inactive) |
| CC(C)(C)OC(=O)NCC(=O)N1CCCN(C(=O)CNC(=O)OC(C)(C)C)CC1 | > 100 µM (inactive) | > 100 | > 100 µM (inactive) | > 100 µM (inactive) | > 100 µM (inactive) | > 100 µM (inactive) | > 100 µM (inactive) | > 100 µM (inactive) | > 100 µM (inactive) | > 100 µM (inactive) | > 100 µM (inactive) | > 100 µM (inactive) | > 100 µM (inactive) | > 100 µM (inactive) |  | > 100 µM (inactive) | > 100 µM (inactive) | > 100 µM (inactive) |
| COc1cc2c(cc1C)NC(=O)/C2=C/c1c(Cl)n(C)c2ccccc12 | 5.86 µM (inactive) | 3.98 | 2.61 µM (inactive) | 6.08 µM (inactive) | 3.42 µM (inactive) | 3.02 µM (inactive) | 1.71 µM (inactive) | 2.15 µM (inactive) | 8 µM (inactive) | 5.38 µM (inactive) | 3.13 µM (inactive) | 4.1 µM (inactive) | 4.48 µM (inactive) | 7.66 µM (inactive) | 12.1 µM (inactive) | 3.05 µM (inactive) | 2.62 µM (inactive) | 5.73 µM (inactive) |
| CC(C)(C)n1c(=O)n2c(-c3ccccc3)c(-c3ccccc3)n2c1=O | > 100 µM (inactive) | > 100 | 11.5 µM (inactive) | 66.7 µM (inactive) | > 100 µM (inactive) | 1.24 µM (inactive) | > 100 µM (inactive) |  | > 100 µM (inactive) | 44.7 µM (inactive) | 17.1 µM (inactive) | 76 µM (inactive) | > 100 µM (inactive) | > 100 µM (inactive) | 36.8 µM (inactive) | > 100 µM (inactive) | > 100 µM (inactive) | > 100 µM (inactive) |
| CC1=NCCN=C(C)C1/N=N/c1ccc2[nH]c(C)nc2c1 | 0.912 µM (active) | 8.77 | 3.54 µM (inactive) | 12.6 µM (inactive) | 23.3 µM (inactive) | 4.83 µM (inactive) | 8.53 µM (inactive) | 6.38 µM (inactive) | 16 µM (inactive) | 6.03 µM (inactive) | 3.11 µM (inactive) | 16.3 µM (inactive) | 21.2 µM (inactive) | 13.2 µM (inactive) | 20.5 µM (inactive) | 14.9 µM (inactive) | 12.7 µM (inactive) | 14.2 µM (inactive) |
| C/C1=C\CC[C@@]2(C)O[C@@H]2C[C@@H]2[C@H](C/C(C)=C/CC1)OC(=O)C21CCN=N1 (stereo partly specified) | > 100 µM (inactive) | > 75 | 37.2 µM (inactive) | > 75 µM (inactive) | 38 µM (inactive) | 6.98 µM (inactive) | > 75 µM (inactive) | 16 µM (inactive) | > 75 µM (inactive) | > 75 µM (inactive) | 31.3 µM (inactive) | > 75 µM (inactive) | > 75 µM (inactive) | 32.4 µM (inactive) | > 75 µM (inactive) | > 75 µM (inactive) | > 100 µM (inactive) | > 75 µM (inactive) |
